Values quoted from earlier work, collected in patent US7604823B2, “Synergistic HIV/AIDS and/or immune disease phyto-nutraceutical composition” (priority 2006, dated 2009).
“Also recorded” adds a separate entry of the source.

What was measured:
HIV [1] = system: HIV
HIV-1 PR = HIV-1 PR (Human immunodeficiency virus type 1 group M subtype B, UniProt P04585)
HIV [2] = settings: human, in vivo
HIV-1 [3] = system: HIV-1
[4] = system: HIV-1-infected cells (CEM/LAV-1)
[5] = target: HIV-1 reverse transcriptase (Human immunodeficiency virus type 1 group M subtype B, UniProt P04585)
[6] = system: bacterial resistance mechanism (multidrug pump); settings: in the presence of 5′-MHC
[7] = system: HIV-1 LTR-directed gene expression; settings: concentrations that have minor effects on cells
[8] = system: cells either acutely or chronically infected with HIV-1; settings: cells acutely or chronically infected with HIV-1
HIV-1 [9] = settings: prolonged period
HIV [10] = settings: after administration, no antiretroviral medications

Compound: lentinan
- tolerability (HIV [1]; HIV-positive patients): good tolerability
- CD4 cells (HIV [1]; human, in vivo): trend toward increases

Compound: C[C@H](CC[C@H](O)C(C)(C)O)[C@H]1CC[C@@]2(C)C3=CC[C@H]4C(C)(C)C(=O)CC[C@]4(C)C3=CC[C@]12C [ganodermanondiol]
- inhibition of HIV-1 protease (HIV-1 PR): significant

Compound: C[C@H](CC[C@H](O)C(C)(O)CO)[C@H]1CC[C@@]2(C)C3=CC[C@H]4C(C)(C)[C@@H](O)CC[C@]4(C)C3=CC[C@]12C (stereo partly drawn) [ganoderiol A]
- inhibition of HIV-1 protease (HIV-1 PR): moderately active

Compound: O=c1[nH]cnc2c1ncn2[C@H]1CC[C@@H](CO)O1 [ddI, didanosine]
- mean change of CD4 cells/mm3 (HIV [2]): decrease

Compound: C[C@H](CC[C@H](O)[C@](C)(O)CO)[C@H]1CC[C@@]2(C)C3=CC[C@H]4C(C)(C)C(=O)CC[C@]4(C)C3=CC[C@]12C [ganodermanontriol]
- activity as anti-HIV-1 agents (HIV-1 [3]): active
- inhibition of HIV-1 protease (HIV-1 PR): significant

Compound: C/C(=C\CC[C@@H](C)[C@H]1CC(=O)[C@@]2(C)C3=C(C(=O)C[C@]12C)[C@@]1(C)CC[C@H](O)C(C)(C)[C@@H]1C[C@@H]3O)C(=O)O [Ganoderic acid beta]
- inhibition of HIV-1 protease (HIV-1 PR): significant

Compound: C=CCSSCC=C [Allyl disulfide]
- cell proliferation of HIV-1-infected cells [4]: strongly depressed

Compound: COc1ccc2cc3[n+](cc2c1OC)CCc1cc2c(cc1-3)OCO2 [Berberine]
- inhibition of HIV-1 reverse transcriptase [5]: inhibits

Compound: CC(=O)OC1C(=O)C2=C(C(=O)CC3C(C)(C)[C@@H](O)CC[C@]23C)[C@]2(C)[C@H](O)C[C@H]([C@H](C)CC(=O)CC(C)C(=O)O)[C@@]12C (stereo partly drawn) [ganoderic acid alpha]
- inhibition of HIV-1 protease (HIV-1 PR): moderately active

Compound: CO[C@@H]1C=C2[C@@H]3CC[C@H]([C@H](C)C=C[C@H](C)C(C)C)[C@@]3(C)CC[C@@H]2[C@@]2(C)CC[C@H](O)C[C@]12O [3 beta-5 alpha-dihydroxy-6beta-methoxyergosta-7,22-diene]
- inhibition of HIV-1 protease (HIV-1 PR): moderately active

Compound: C[C@H](CCC=C(CO)CO)[C@H]1C[C@H](O)[C@@]2(C)C3=CC[C@H]4C(C)(C)C(=O)CC[C@]4(C)C3=CC[C@]12C [ganoderiol B]
- inhibition of HIV-1 protease (HIV-1 PR): moderately active

Compound: C[C@H](CCC=C(CO)CO)[C@H]1CC[C@@]2(C)C3=CC[C@H]4C(C)(C)C(=O)CC[C@]4(C)C3=CC[C@]12C [Ganoderiol F]
- activity as anti-HIV-1 agents (HIV-1 [3]): active

Compound: CC(CC(=O)C[C@@H](C)[C@H]1C[C@H](O)[C@@]2(C)C3=C(C(=O)C[C@]12C)[C@@]1(C)CCC(=O)C(C)(C)[C@@H]1CC3)C(=O)O (stereo partly drawn) [ganolucidic acid A]
- inhibition of HIV-1 protease (HIV-1 PR): significant

Compound: C[C@H](CC(=O)C[C@@H](C)[C@H]1CC(=O)[C@@]2(C)C3=C(C(=O)C[C@]12C)[C@@]1(C)CCC(=O)C(C)(C)[C@@H]1C[C@@H]3O)C(=O)O [ganoderic acid C1]
- inhibition of HIV-1 protease (HIV-1 PR): moderately active

Compound: COc1cc([C@H]2Oc3cc(-c4cc(=O)c5c(O)cc(O)cc5o4)cc(OC)c3O[C@@H]2CO)ccc1O (racemic) [5′-MHC, 5′-methoxyhydnocarpin]
- accumulation of berberine in the cells [6]: strong increase

Compound: CC1(C)CCC2=C(O1)c1ccccc1C(=O)C2=O [beta-lapachone]
- inhibition of HIV-1 LTR-directed gene expression [7]: potent and selective inhibitor
- p24 antigen production [8]: inhibited

Compound: CC(=O)O[C@@H]1C(=O)C2=C(C(=O)C[C@H]3C(C)(C)[C@@H](O)CC[C@]23C)[C@]2(C)C(=O)C[C@H]([C@H](C)CC(=O)CC(C)C(=O)O)[C@@]12C (stereo partly drawn) [ganoderic acid H]
- inhibition of HIV-1 protease (HIV-1 PR): moderately active

Compound: Cc1cn([C@H]2C[C@H](N=[N+]=[N-])[C@@H](CO)O2)c(=O)[nH]c1=O [ZDV, zidovudine]
- CD4+ T cell counts (HIV-1 [9]): decreased

Compound: CC(CC(=O)C[C@@H](C)[C@H]1CC(=O)[C@@]2(C)C3=C(C(=O)C[C@]12C)[C@@]1(C)CC[C@H](O)C(C)(C)[C@@H]1C[C@@H]3O)C(=O)O (stereo partly drawn) [ganoderic acid B]
- inhibition of HIV-1 protease (HIV-1 PR): moderately active

Compound: C=CCO [allyl alcohol]
- cell proliferation of HIV-1-infected cells [4]: strongly depressed; also recorded: completely inhibited

Compound: C=C1CC[C@@H]2[C@](C)(CO)[C@H](O)CC[C@@]2(C)[C@@H]1C/C=C1/C(=O)OC[C@H]1O [andrographolide]
- mean CD4(+) lymphocyte level of HIV subjects (HIV [10]): significant rise
